≈ marks a conversion by molar mass, not a printed value.
Assays:
[1] = biological target: T1, recombinant human CD73 (hCD73) (Homo sapiens, UniProt P21589); test: CD73 activity assay on recombinant human CD73; format: biochemical; conditions: ΔGexp = RT ln Ki
T1 sequence (P21589 27-574): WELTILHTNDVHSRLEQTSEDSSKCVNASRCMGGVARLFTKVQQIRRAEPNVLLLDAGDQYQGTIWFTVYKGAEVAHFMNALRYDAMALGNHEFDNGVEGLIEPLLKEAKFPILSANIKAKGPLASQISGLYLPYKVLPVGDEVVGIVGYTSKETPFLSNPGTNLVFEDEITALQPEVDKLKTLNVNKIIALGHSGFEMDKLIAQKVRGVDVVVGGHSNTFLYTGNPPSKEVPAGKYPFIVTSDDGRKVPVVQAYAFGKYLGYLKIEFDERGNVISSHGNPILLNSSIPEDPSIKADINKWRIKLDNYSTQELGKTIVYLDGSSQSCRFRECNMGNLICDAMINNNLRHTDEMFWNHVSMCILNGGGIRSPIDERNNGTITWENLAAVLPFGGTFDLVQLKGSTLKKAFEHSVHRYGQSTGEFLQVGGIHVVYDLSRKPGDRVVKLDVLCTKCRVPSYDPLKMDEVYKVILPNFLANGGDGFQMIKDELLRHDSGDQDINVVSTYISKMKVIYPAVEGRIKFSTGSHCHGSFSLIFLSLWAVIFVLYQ

[2] = Plasma protein binding, equilibrium dialysis, human plasma; format: in vitro ADME; conditions: undiluted plasma
[3] = Plasma protein binding, mouse plasma; format: in vitro ADME; conditions: mouse, plasma, mouse plasma protein binding; read-out: PPB (m) (converted)
[4] = Kinetic solubility in PBS; format: physicochemical; conditions: phosphate-buffered saline, pH 7.4, aqueous buffer, kinetic from dmso stock
Method in brief: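 Echo-MS quantitation with calibration from 0.05 to 4 μM, after 1:99 dilution of filtrate into 50% acetonitrile. Filtrate came from a 100 μM PBS (pH 7.4) solution equilibrated 2 h at room temperature with shaking, in duplicate.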

[5] = Microsomal stability assay, human liver microsomes; format: in vitro ADME; conditions: for Mics (hu) comp remaining 60 min: 10 μM; for microsomal CLint at 10 µM: pooled liver microsomes, pH 7.4, read-out: Mics (hu) CLint
[6] = Microsomal stability assay, mouse liver microsomes; format: in vitro ADME; conditions: for Mics (m) comp remaining 60 min: 10 μM; for microsomal CLint at 10 µM: pooled liver microsomes, pH 7.4, read-out: Mics (m) CLint
CCRF-CEM = test: In vitro cytotoxic activity; format: cell-based; conditions: Homo sapiens
Description: (§1) All the compounds were also tested for their in vitro cytotoxic activity on a small panel of four cancer cell lines (CCRF-CEM, HepG2, HeLa S3, HL-60) and nonmalignant human dermal fibroblasts (NHDF).

HL-60 = test: In vitro cytotoxic activity; format: cell-based; conditions: Homo sapiens
Description: as §1

HeLa S3 = test: In vitro cytotoxic activity; format: cell-based; conditions: Homo sapiens
Description: as §1

HepG2 = test: In vitro cytotoxic activity; format: cell-based; conditions: Homo sapiens
Description: as §1

[7] = tested on: nonmalignant human dermal fibroblasts (NHDF); test: In vitro cytotoxic activity; format: cell-based
Description: as §1

in vitro [8] = conditions: human, plasma
in vitro [9] = conditions: mouse, plasma
[10] = human plasma protein binding, read-out: PPB (hu) (converted)
[11] = Tables 1 and 3, human plasma as printed in footnote, read-out: fup, fraction unbound in human plasma

| dG_exp, experimental binding free energy [1] | fraction unbound at 4 h, 100 µM [2, 10] | fraction unbound at 4 h, 100 µM [3] | solubility at 2 h [4] | Mics (hu) comp remaining 60 min [5] | microsomal CLint at 10 µM [5] | Mics (m) comp remaining 60 min [6] | microsomal CLint at 10 µM [6] | half-life at 10 µM (in vitro [8]) | half-life at 10 µM (in vitro [9]) | fraction unbound at 4 h, 100 µM [2, 11] | Compound | IC50 (CCRF-CEM) | IC50 (HL-60) | IC50 (HeLa S3) | IC50 (HepG2) | IC50 [7] |
| --- | --- | --- | --- | --- | --- | --- | --- | --- | --- | --- | --- | --- | --- | --- | --- | --- |
| –13.2 kcal/mol | 0.069 | 0.816 | 89 µM (≈ 43.5 µg/mL) | 100% | < 1 µL/min/mg | 96% | 1 µL/min/mg | > 2 h | > 2 h |  | Cc1nc(-c2ccco2)c2ccn([C@@H]3O[C@H](COP(=O)(O)CP(=O)(O)O)[C@@H](O)[C@H]3O)c2n1 [18E.1] | > 10 µM | > 10 µM | > 10 µM | > 10 µM | > 10 µM |
| –12.7 kcal/mol | 0.048 | 0.685 | 85 µM (≈ 45.6 µg/mL) | 94% | < 1 µL/min/mg | 105% | < 1 µL/min/mg | > 2 h | > 2 h |  | O=P(O)(O)CP(=O)(O)OC[C@H]1O[C@@H](n2ccc3c(-c4ccc5ncccc5c4)ncnc32)[C@H](O)[C@@H]1O [4A.19] | > 10 µM | 3.1 µM | > 10 µM | > 10 µM | > 10 µM |
| –13.4 kcal/mol | ≤ 0.01 | 0.136 | 79 µM (≈ 44.7 µg/mL) | 104% | < 1 µL/min/mg |  | < 1 µL/min/mg | > 2 h | > 2 h | 0.14 | COc1nc(-c2ccc3ccccc3c2)c2ccn([C@@H]3O[C@H](COP(=O)(O)CP(=O)(O)O)[C@@H](O)[C@H]3O)c2n1 [21F.7, [(5-{[2-Methoxy-4-(naphthalen-2-yl)-7H-pyrrolo[2,3-d]pyrimidin-7-yl]-β-D-ribofuranosyl}oxy)phosphonomethyl]phosphonic Acid] | > 10 µM | > 10 µM | > 10 µM | > 10 µM | > 10 µM |
| –13.8 kcal/mol | 0.037 | 0.305 | > 100 µM | 100% | < 1 µL/min/mg | 97% | 2 µL/min/mg | > 2 h | > 2 h |  | Nc1nc(-c2ccc3ccccc3c2)c2ccn([C@@H]3O[C@H](COP(=O)(O)CP(=O)(O)O)[C@@H](O)[C@H]3O)c2n1 [11C.7] | > 10 µM | > 10 µM | > 10 µM | > 10 µM | > 10 µM |
| –15.6 kcal/mol | ≤ 0.01 | 0.229 | 86 µM (≈ 50.7 µg/mL) | 102% | < 1 µL/min/mg | 88% | 6 µL/min/mg | > 2 h | > 2 h |  | CC1(C)Cc2cc(-c3nc(Cl)nc4c3ccn4[C@@H]3O[C@H](COP(=O)(O)CP(=O)(O)O)[C@@H](O)[C@H]3O)ccc2O1 [7B.30] | > 10 µM | > 10 µM | > 10 µM | > 10 µM | > 10 µM |
| –13.1 kcal/mol | 0.224 | 0.622 | > 100 µM | 107% | < 1 µL/min/mg | 103% | < 1 µL/min/mg | > 2 h | > 2 h |  | Nc1nc(-c2ccco2)c2ccn([C@@H]3O[C@H](COP(=O)(O)CP(=O)(O)O)[C@@H](O)[C@H]3O)c2n1 [11C.1, [(5-{[2-Amino-4-(furan-2-yl)-7H-pyrrolo[2,3-d]pyrimidin-7-yl]-β-D-ribofuranosyl}oxy)phosphonomethyl]phosphonic Acid] | > 10 µM | > 10 µM | > 10 µM | > 10 µM | > 10 µM |
| –13.9 kcal/mol | 0.157 | 0.445 | 88 µM (≈ 48.8 µg/mL) | 101% | < 1 µL/min/mg | 100% | < 1 µL/min/mg | > 2 h | > 2 h |  | Nc1nc(-c2cccc3c2CCCC3)c2ccn([C@@H]3O[C@H](COP(=O)(O)CP(=O)(O)O)[C@@H](O)[C@H]3O)c2n1 [11C.12] | > 10 µM | > 10 µM | > 10 µM | > 10 µM | > 10 µM |
| –14.1 kcal/mol | ≤ 0.01 | 0.374 | > 100 µM | 109% | < 2 µL/min/mg |  | < 2 µL/min/mg | > 2 h | > 2 h |  | Nc1ccc(-c2nc(Cl)nc3c2ccn3[C@@H]2O[C@H](COP(=O)(O)CP(=O)(O)O)[C@@H](O)[C@H]2O)c2ccccc12 [7B.33] | 9.6 µM | 9.1 µM | 8.7 µM | 7.9 µM | 8.8 µM |
| –12.7 kcal/mol | ≤ 0.01 | 0.112 | 84 µM (≈ 47.4 µg/mL) | 106% | < 1 µL/min/mg |  | 3 µL/min/mg | > 2 h | > 2 h | 0.11 | CNc1nc(-c2ccc3ccccc3c2)c2ccn([C@@H]3O[C@H](COP(=O)(O)CP(=O)(O)O)[C@@H](O)[C@H]3O)c2n1 [22G.7, [(5-{[2-(N-Methylamino)-4-(naphthalen-2-yl)-7H-pyrrolo[2,3-d]pyrimidin-7-yl]-β-D-ribofuranosyl}oxy)phosphonomethyl]phosphonic Acid] | > 10 µM | 8.1 µM | > 10 µM | > 10 µM | > 10 µM |
| –12.9 kcal/mol | 0.062 | 0.547 | > 100 µM | 112% | < 1 µL/min/mg | 94% | 3 µL/min/mg | > 2 h | > 2 h |  | O=P(O)(O)CP(=O)(O)OC[C@H]1O[C@@H](n2ccc3c(-c4ccc5c(c4)CCO5)ncnc32)[C@H](O)[C@@H]1O [4A.14] | > 10 µM | 6.6 µM | > 10 µM | 6.3 µM | 5.6 µM |
| –13.1 kcal/mol | 0.054 | 0.737 | > 100 µM | 95% | 3 µL/min/mg | 79% | 8 µL/min/mg | > 2 h | > 2 h |  | O=P(O)(O)CP(=O)(O)OC[C@H]1O[C@@H](n2ccc3c(-c4ccc5cnccc5c4)ncnc32)[C@H](O)[C@@H]1O [4A.21] | > 10 µM | 5.9 µM | > 10 µM | > 10 µM | > 10 µM |
| –12.9 kcal/mol | 0.113 | 0.948 | 66 µM (≈ 35.5 µg/mL) | 92% | 4 µL/min/mg | 101% | < 1 µL/min/mg | > 2 h | > 2 h |  | O=P(O)(O)CP(=O)(O)OC[C@H]1O[C@@H](n2ccc3c(-c4ccc5cncnc5c4)ncnc32)[C@H](O)[C@@H]1O [4A.22] | 9.9 µM | 4.8 µM | > 10 µM | > 10 µM | > 10 µM |
